Measurements from patent publication US20220387370A1, “METHODS OF REDUCING NEUROLOGICAL DAMAGE IN WILSON DISEASE PATIENTS” (priority 2019, published 2022).
Entries after “also recorded” stand apart in the source; their conditions may differ.

Assays:
[1] = tested on: Atp7b^−/− rats; experiment: Chelator treatment of WD rats: copper in serum, urine and feces (ICP-OES); type: in vivo, rat
Method: Control Atp7b^+/- and WD Atp7b^-/- rats were fed ad libitum with normal chow (1314; 13.89 mg Cu/kg; Altromin Spezialfutter GmbH, […], Germany) and tap water. All rats were healthy at treatment start and presented no signs of acute liver damage (serum AST <200 U/L and serum bilirubin <0.5 mg/dl). […] Untreated Atp7b^+/- and Atp7b^-/- rats served as controls. Urine and feces were collected at 24-hour intervals for which rats were housed individually in metabolic cages for 4 days. After a two-day resting period off treatment in normal cages and group housing, rats were sacrificed for serum collection.

[2] = tested on: U87MG cells; settings: 750 μM chelator
Method: SHSY5Y (human neuroblastoma), U87MG (human astrocytoma), EA.hy926 (human endothelium) and HepG2 (human hepatocellular carcinoma) cells were from ATCC (Wesel, Germany) and were cultured in Dulbecco's Modified Eagle Medium (DMEM) supplemented with 10% FCS (Biochrom, Berlin, Germany) and 1% antibiotic-antimycotic (Life Technologies, Carlsbad, USA). All cells were maintained at 37° C. in a humidified atmosphere with 5% CO2.

C[N+](C)(C)CCO.C[N+](C)(C)CCO.[SH-].[SH-].[S]=[Mo]=[S] [ALXN1840, bis-choline tetrathiomolybdate]
fecal copper excretion ([1]; during treatment): unchanged
urinary copper excretion ([1]; during treatment, urine collected over 24 h): lack of urinal copper excretion
serum copper levels ([1]; i.p. once daily for 4 consecutive days (ALXN1840 2.5 mg/kg bw, DPA 100 mg/kg bw), serum at sacrifice after resting period): significantly increased; also recorded: increased serum copper levels
net copper excretion (urine and feces) ([1]; observation period of 96 hours): no profoundly elevated net copper excretion
CellTiterGlo-assessed cell viability / Cu-albumin toxicity [2]: protected
